According to patent US5856166A, “Streptomyces proteases and methods for improved secretion of recombinantly-expressed proteins” (Cangene Corporation, priority 1994, dated 1999):
Entries after “also recorded” stand apart in the source; their conditions may differ. Where a SMILES comes first, the peptide text is derived from it. The star is where a group is joined. CH2Cl = ClC*

Columns and labels:
S. lividans 66 = test: Cell growth of S. lividans fermentation in the presence of APACMK; format: cell-based; details: 10 uM APACMK
Description: (§1) 100 ml of media was inoculated in 500 ml baffle-bottom flasks with 100 ul of S. lividans 66 working seed bank material. The cultures were grown in a New Brunswick gyratory incubator at 32° C. and 240 rpm. The cultures were sampled at 25, 27, 29, 31, and 48 hours post-inoculation and analyzed by native gel electrophoresis (see FIG. 7). Following removal of the 25 hour sample, 100 mM APACMK in sterile water were added to yield a final concentration of 10 uM. A control flask without APACMK was retained.

[1] = molecular target: T1, Tap (tripeptidyl aminopeptidase) (Streptomyces lividans, UniProt Q54410); test: Cleavage of GM-CSF by Tap, native gel electrophoresis; format: biochemical, S. lividans 66
T1 construct: An autolytic tripeptide cleavage removing APA after signal peptide removal would yield the N-terminal found for the secreted protease; made in house; host or cells: Streptomyces lividans 66 (wild-type strain, native secreted enzyme purified from the broth)
T1 sequence (Q54410 40-537): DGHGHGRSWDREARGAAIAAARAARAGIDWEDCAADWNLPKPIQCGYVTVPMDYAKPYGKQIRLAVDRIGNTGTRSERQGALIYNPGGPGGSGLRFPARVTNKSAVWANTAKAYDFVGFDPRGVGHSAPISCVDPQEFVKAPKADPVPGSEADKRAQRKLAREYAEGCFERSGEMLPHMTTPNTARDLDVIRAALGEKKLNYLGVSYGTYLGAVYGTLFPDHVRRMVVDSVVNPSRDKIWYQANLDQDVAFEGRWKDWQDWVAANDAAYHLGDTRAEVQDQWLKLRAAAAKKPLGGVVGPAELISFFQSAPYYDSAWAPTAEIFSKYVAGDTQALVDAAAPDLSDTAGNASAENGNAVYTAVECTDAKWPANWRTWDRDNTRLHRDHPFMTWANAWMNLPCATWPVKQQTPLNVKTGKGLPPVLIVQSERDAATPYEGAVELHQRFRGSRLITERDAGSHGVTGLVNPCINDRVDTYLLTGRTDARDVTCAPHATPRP
Description: The assay was performed as described in Example 7. The Tap concentration in the assays was 5 nM. Lane 1=GM-CSF standard; Lane 2=GM-CSF after digestion with Tap in the absence of APACMK; Lanes 3 and 4=150 uM APACMK; Lanes 5 and 6=15 uM APACMK; Lanes 7 and 8=1.5 uM APACMK; Lanes 9 and 10=150 nM APACMK; Lanes 11 and 12=15 nM APACMK; Lanes 13 and 14=1.5 nM APACMK; Lanes 15 and 16=150 pM APACMK.
To 10 ul of rhGM-CSF (10 ug, Cangene) and 20 ul 20 mM Tris-HCl, pH 8.0, 20 ul of Tap were added. The assays were incubated at 37° C. for 2 hrs. 20 ul of 125 mM Tris-HCl, pH 6.8, 0.1% bromophenol blue in 50% aqueous glycerol were added. Products were separated by native gel electrophoresis at constant current on a 17% polyacrylamide gel by a modification of the method of Davies (Davies, 1964) in which the pH of all buffers was modified with H2 SO4. Products were visualized by staining with Coomassie Blue G-250 (see FIG. 1A).
A stock solution of 10 nM Tap in 20 mM Tris-HCl, pH 8.0 was prepared. Serial dilutions of 210 uM, 21 uM, 2.1 uM, 210 nM, 21 nM, and 2.1 nM APACMK (Example 5) were prepared. To 20 ul Tap, 20 ul of an APACMK dilution (or water for an uninhibited enzyme control) were added and incubated at 22° C. for 30 minutes. 10 ul of GM-CSF (1 ug/ul, Cangene) were added and incubated at 37° C. for 2 hours. Products were analyzed by native gel electrophoresis as described in Example 2.

[2] = molecular target: T1, Tap (tripeptidyl aminopeptidase); test: Inactivation of Tap by APACMK assayed with APA-pNA, determination of kinetic constants; format: biochemical, S. lividans 66
Description: The concentration of Tap in the inactivations was 1.0 uM. The inactivation and assay were conducted as described in Example 8. In FIG. 6, (O)=2.70 uM APACMK; (Δ)=2.16 uM APACMK; (.quadrature.)=1.73 uM APACMK; (*)=1.38 uM APACMK; (+)=No APACMK.
The methods employed are described in Examples 6, 7, and 8.
A stock solution of 10 nM Tap in 100mM Tris-HCl, pH 8.0 was prepared. Serial dilutions of 210 uM, 21 uM, 2.1 uM, 210 nM, 21 nM, and 2.1 nM APACMK (Example 5) were prepared. To the microtiter well, 25 ul of Tap followed by 25 ul of an APACMK dilution or distilled water, for an uninhibited control, were added. The assays were incubated for 20 minutes at 22° C. 50 ul 1.6 mM APA-pNA were added to each well. The absorbance was read at 405 nm then incubated at 37° C. The change in absorbance at 405 nm was read after 15 and 60 minutes of incubation.
A stock solution of 1.1 uM Tap in 50 mM Tris-HCl, pH 8.0 was prepared. APACMK stock solutions of 11 uM, 13.8 uM, 17.3 uM, 21.7 uM, 27.0 uM, 54.0 uM, 108 uM, and 1.08 mM were prepared. The Substrate Solution was 50 mM Tris-HCl, pH 8.0, 0.8 mM APA-pNA. The inactivation was performed by placing 90 ul of Tap […] in a 1.5 ml Eppendorf tube on ice and adding 10 ul of water (uninhibited control) or 10 ul of APACMK. A 10 ul aliquot was removed immediately and was assayed by adding it to a cuvette containing 390 ul Substrate Solution at 22° C. The initial velocity was obtained from the change in absorbance at 405 nm during the first 10 seconds of the assay. Additional aliquots were removed at time points and assayed by the same method. At APACMK concentrations greater than 5.0 uM in the incubation, it was not possible to remove an aliquot from the incubation before 90% inactivation occurred.

Tap = molecular target: T2, Tap (Streptomyces lividans, UniProt Q54410); test: Inhibition of Tap by APACMK during fermentation of S. lividans (GM-CSF(-3) formation); format: cell-based, S. lividans 66; details: 10 uM APACMK added after 25 hours; sampled to 48 hours
T2 construct: 100 ml of media was inoculated in 500 ml baffle-bottom flasks with 100 ul of S. lividans 66 working seed bank material; endogenous in cells; host or cells: Streptomyces lividans 66
T2 sequence (Q54410 40-537): T1 sequence (Q54410 40-537)
Description: When APACMK and GM-CSF were added to the protease-containing broth from S. lividans fermentations, the formation of the GM-CSF(-3) degradation product was inhibited. Lane 1=Standard containing GM-CSF and GM-CSF(-3). Lanes 2-6 show a fermentation in the presence of 10 uM APACMK. Lane 2=25 hours growth; Lane 3=27 hours growth; Lane 4=29 hours growth; Lane 5=31 hours growth; Lane 6=48 hours growth. Lanes 7-11 show a fermentation without APACMK. Lane 7=25 hours growth; Lane 8=27 hours growth; Lane 9=29 hours growth; Lane 10=31 hours growth; Lane 11=48 hours growth. GM-CSF degradation was analyzed by native gel electrophoresis.
as §1

[3] = molecular target: T1, Tap (tripeptidyl aminopeptidase); test: Inhibition of TAP in the APA-pNA assay (protease inhibitor survey, Table I); format: biochemical, S. lividans 66
Description: The protease and inhibitor were preincubated for 15 minutes at 22° C. Substrate was added and the mixture was incubated at 37° C. Activity was measured by monitoring the change in absorbance at λ=405 nm.
The assay was conducted in a 96 well microtiter plate. To each well in the assay, 50 ul 100 mM Tris-HCl, pH 8.0, were added followed by 25 ul 3.2 mM APA-pNA. 25 ul of Tap were added to the wells and the absorbance was read at 405 nm. The assays were incubated at 37° C. for 2 hours. The absorbance was read at 405 nm. The activity (release of p-nitroaniline) was calculated from the change in absorbance.

[4] = molecular target: T1, Tap (tripeptidyl aminopeptidase); test: Cleavage of IL-3 by Tap after PMSF treatment, isoelectric focusing; format: biochemical, S. lividans 66; details: Tap preincubated with PMSF 30 minutes at 22° C.; incubation up to 4 hours at 37° C.
Description: Lanes 1-4 show the incubation of IL-3 with TAP-S that has been treated with PMSF. Lane 1=4 hrs; Lane 2=2 hours; Lane 3=1 hr.; Lane 4=0 hours. Lanes 5-8 show the incubation of IL-3 with uninhibited Tap. Lane 5=4 hrs.; Lane 6=2 hrs.; Lane 7=1 hrs.; Lane 8=0 hrs. Lane 9 is a human carbonic anhydrase marker, pI=7.4. Lane 10 contains pI markers. […] The enzyme is not affected by sulfhydryl reagents, chelators or aspartyl protease inhibitors (Table I).
To 50 ul 20 mM Tris-HCl, pH 8.0, 40 ul rhIL-3 (2.5 ug/ul, Cangene) was added followed by 10 ul Tap. The assays were incubated at 37° C.. 25 ul aliquots were withdrawn at the desired time points and frozen on crushed dry ice. The products were separated by isoelectric focusing from pH 3-10 using Pharmalyte 3-10 (Pharmacia) ampholytes (FIG. 4). Products were visualized by staining with Coomassie Blue G-250.
Tap stock (Example 1) was diluted 100-fold with 20 mM Tris-HCl, pH 8.0. A fresh solution of 80 mM PMSF was prepared in isopropanol (iPrOH). A Stock Buffer of 20 mM Tris-HCl, pH 8.0 was prepared. Four preincubations were prepared as follows.
These were incubated at 22° C. for 30 minutes. When the preincubation was complete, 40 ul rhIL-3 (2.5 ug/ul, Cangene) were added and incubation was initiated at 37° C.. […] When the sampling process was complete, the products were analyzed by isoelectric focusing from pH 3-10 (Example 2).

[5] = inactivation of Tap, APA-pNA as substrate

C[C@H](N)C(=O)N1CCC[C@H]1C(=O)N[C@@H](C)C(=O)CCl [APACMK, L-alanyl-L-prolyl-L-alanine chloromethylketone] (H-Ala-Pro-Ala-CH2Cl)
cell growth during fermentation (S. lividans 66): did not significantly retard the rate of cell growth; also recorded: did not inhibit cell growth | effect on cleavage of GM-CSF by Tap [1]: stopped the cleavage of GM-CSF; also recorded: inactivated Tap at very low concentrations | effect on release of p-nitroaniline from APA-pNA by Tap [2]: stopped the release of p-nitroaniline; also recorded: inactivated Tap at very low concentrations | inhibition at 2.7 µM ([2]; 0.1 h, within 6 minutes at 0° C., inhibitor concentration 2.7 uM, inhibitor/enzyme molar ratio 2.7): > 99% | Ki [2, 5]: 3.3 µM | kinact [2, 5]: 0.00233 s⁻¹ | formation of GM-CSF(-3) degradation product in S. lividans fermentation (Tap): prevented cleavage of GM-CSF; also recorded: inhibited; also recorded: significantly reduced formation of GM-CSF(-3)

O=S(=O)(F)Cc1ccccc1 [PMSF, phenylmethanesulfonyl fluoride]
effect on cleavage of APA-pNA by Tap ([3]; Tap treated with PMSF): inhibited | Residual Activity ([3]; inhibitor 1.6 mM, preincubated 15 minutes at 22° C., substrate APA-pNA, enzyme only = 100): 7 | effect on cleavage of GM-CSF by Tap [1]: inhibited | effect on cleavage of IL-3 by Tap [4]: inhibited; also recorded: intact IL-3 is clearly detected after 4 hours
